Consider eight compounds from patent publication US20150175655A1 (priority 2012, published 2015).

The target in one experiment is T1, NS3 genotype 3a protease (UniProt Q81258).
T1 construct: Purified NS3 protease domain (amino acids 1-181) of the genotype 1b and 3a virus were generated as above; fused on or other part: N-terminal hexahistidine tag and rTEV protease cleavage site (vector p28-N6H-Tev-NS3(181)3)
T1 sequence (Q81258 1033-1663): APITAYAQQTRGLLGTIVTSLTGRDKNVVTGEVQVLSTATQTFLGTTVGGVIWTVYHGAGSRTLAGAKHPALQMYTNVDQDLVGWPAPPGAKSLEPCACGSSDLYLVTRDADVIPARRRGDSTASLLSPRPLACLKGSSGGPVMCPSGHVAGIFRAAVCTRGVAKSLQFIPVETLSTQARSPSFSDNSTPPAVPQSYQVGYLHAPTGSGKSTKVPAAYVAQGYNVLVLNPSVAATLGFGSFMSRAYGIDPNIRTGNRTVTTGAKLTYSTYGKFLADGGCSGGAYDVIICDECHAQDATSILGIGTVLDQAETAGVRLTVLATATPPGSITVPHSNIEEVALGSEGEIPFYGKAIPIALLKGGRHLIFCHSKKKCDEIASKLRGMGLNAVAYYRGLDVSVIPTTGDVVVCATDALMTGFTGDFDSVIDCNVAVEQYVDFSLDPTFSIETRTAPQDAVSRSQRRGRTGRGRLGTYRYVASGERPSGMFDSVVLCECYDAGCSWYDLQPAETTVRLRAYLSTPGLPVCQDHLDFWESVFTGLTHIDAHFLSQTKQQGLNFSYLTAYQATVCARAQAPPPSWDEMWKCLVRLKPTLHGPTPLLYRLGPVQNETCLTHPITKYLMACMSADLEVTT
In words: Ki determination, NS3 protease genotype 3a (fluorogenic depsipeptide substrate). The format is biochemical, hepatitis C virus. As to conditions: 200 pM enzyme, 20 μM NS4A peptide, 2 μM substrate, read-out: Ki 3A. From the text:
The coding sequences for the genotype 3 HCV protease domain was amplified by RT-PCR using a Titan One Tube RT-PCR Kit (Roche, Indianapolis, Ind.) and RNA extracted from HCV-positive human serum (BBI Diagnostics, MA) using a QIAmp UltraSens Virus Kit (Qiagen, Valencia, Calif.). 5′ PCR primers were designed to encode N-terminal hexahistidine tags and to insert in-frame rTEV protease cleavage sites into the NS3 protease coding sequences. The resulting DNA fragments were cloned into pET28 yielding the expression vectors p28-N6H-Tev-NS3(181)1a and p28-N6H-Tev-NS3(181)3, respectively.
BL21AI bacteria (Invitrogen, Carlsbad, Calif.) were transformed with genotype 1b or 3 NS3 expression vectors and used to inoculate a 20 L fermentation vessel (Sartorius BBI System Inc., Bethlehem, Pa.), containing 18 L of fresh 2YT medium supplemented with 50 μg/mL kanamycin. When cell densities reached an OD600 of 1, the temperature of the cultures was reduced from 37° C. to 28° C. and induction was immediately initiated by the addition of 30 μM ZnSO4, 14 mM L-arabinose and 1 mM Isopropyl β-D-thiogalactoside (IPTG) final concentrations. Cells were harvested by centrifugation four hours post-induction and were stored as frozen pellets at −80° C. prior to NS3 protein purification.
Bacterial pellets collected from the expression of genotype 3 HCV NS3 protease were homogenized in Lysis Buffer (25 mM tris, pH 7.5 buffer containing 150 mM NaCl and 1 mM phenylmethanesulfonyl fluoride (PMSF)) and passed through a microfluidizer at 18,000 pounds/in^2. Homogenized cell lysates were centrifuged at 30,000×g for 30 minutes at 4° C. The resulting P1 pellets were washed with Wash Buffer I (25 mM tris, pH 7.5 containing 1% CHAPS) followed by centrifugation at 10,000×g for 30 minutes at 4° C. […] The resulting P3 pellets were resuspended in Solubilization Buffer (20 ml of 25 mM tris, pH 7.5 containing 150 mM NaCl and 8 M urea) and incubated at 4° C. for one hour. Solubilized proteins were passed through a 0.45 micron filter. Protein concentrations were measured and the solutions were adjusted to 40 mM DTT, incubated for 30 minutes at 4° C. and then quickly diluted into Refolding Buffer (25 mM tris, pH 8.5, 0.8 M Guanidine-HCl, 0.4 M L-Arginine, 10 mM ZnSO4) while stirring. Protein solutions were incubated at 4° C. overnight to allow refolding. Refolded proteases were centrifuged at 30,000×g for 10 minutes to remove residual precipitates. Final protein concentrations were then measured and the NS3 proteases were aliquoted, snap frozen in liquid nitrogen and stored at −80° C.
Purified NS3 protease domain (amino acids 1-181) of the genotype 1b and 3a virus were generated as above. The internally quenched fluorogenic depsipeptide substrate Ac-DED(Edans)-EEAbuψ[COO]ASK(Dabcyl)-NH2 and a synthetic peptide containing the hydrophobic core residues of the NS4A protein cofactor ([…]; NS4A peptide) were obtained from Anaspec, Inc. (San Jose, Calif.). Other chemicals and biochemicals were of reagent grade or better and were purchased from standard suppliers.
Reactions were run at room temperature in buffer consisting of 50 mM HEPES, 40% glycerol, 0.05% Triton X-100, 10 mM DTT, and 10% DMSO. The final assay solutions contained 50 pM NS3 genotype 1b protease or 200 pM genotype 3a protease, 20 μM NS4A peptide, and 4 μM substrate (genotype 1 b) or 2 μM substrate (genotype 3a). Inhibitor concentrations varied from 100 nM to 5 pM in 3-fold dilutions, and no-inhibitor controls were included.
Compound dilutions were made in DMSO at 20× final concentration. Reaction mixtures were prepared in 96-well assay plates. A solution of enzyme and NS4A peptide in assay buffer (25 μL volume with both reagents at 4× final concentration) was mixed with 45 μL assay buffer and 5 μL of either inhibitor or DMSO, and pre-incubated at room temperature for 1 hour. The reaction was started by addition of 25 μL substrate solution at 4× final concentration. […]
Regarding `CC[C@@H]1[C@@H]2CN(C(=O)[C@H](C(C)(C)C)NC(=O)O[C@@H]3C[C@@H]4C[C@@H]4[C@H]3CCCCC(F)(F)c3nc4ccc(OC)cc4nc3O2)[C@@H]1C(=O)N[C@]1(C(=O)NS(=O)(=O)C2(C)CC2)C[C@H]1C(F)F` [Example 61, (1aS,2aR,6S,9S,10S,11R,23aR,23bS)-6-tert-butyl-N-[(1R,2R)-2-(difluoromethyl)-1-{[(1-methylcyclopropyl)sulfonyl]carbamoyl}cyclopropyl]-10-ethyl-19,19-difluoro-15-methoxy-4,7-dioxo-1a,2,2a,4,5,6,7,10,11,19,20,21,22,23,23a,23b-hexadecahydro-1H,9H-8,11-methanocyclopropa[4′,5′]cyclopenta[1′,2′:18,19][1,10,3,6]dioxadiazacyclononade cino[11,12-b]quinoxaline-9-carboxamide], the Ki was 0.09 nM.

Turning to `CC[C@@H]1[C@@H]2CN(C(=O)[C@H](C(C)(C)C)NC(=O)O[C@@H]3C[C@H]3CCCCCc3nc4ccc(OC)cc4nc3O2)[C@@H]1C(=O)N[C@]1(C(=O)NS(=O)(=O)C2CC2)C[C@H]1CC` [Example 3, (1aR,5S,8S,9S,10R,22aR)-5-tert-butyl-N-{(1R,2R)-1-[(cyclopropylsulfonyl)carbamoyl]-2-ethylcyclopropyl}-9-ethyl-14-methoxy-3,6-dioxo-1,1a,3,4,5,6,9,10,18,19,20,21,22,22a-tetradecahydro-8H-7,10-methanocyclopropa[18,19][1,10,3,6]dioxadiazacyclononadecino[11,12-b]quinoxaline-8-carboxamide], the inhibitory constant (Ki) was determined as 0.56 nM.

For `COc1ccc2nc3c(nc2c1)O[C@H]1CN(C(=O)[C@H](C(C)(C)C)NC(=O)O[C@@H]2C[C@H]2CCCCC3)[C@H](C(=O)N[C@]2(C(=O)NS(=O)(=O)C3(C)CC3)C[C@H]2C(F)F)[C@@H]1CC#N` [Example 50, (1aR,5S,8S,9S,10R,22aR)-5-tert-butyl-9-(cyanomethyl)-N-[(1R,2R)-2-(difluoromethyl)-1-{[(1-methylcyclopropyl)sulfonyl]carbamoyl}cyclopropyl]-14-methoxy-3,6-dioxo-1,1a,3,4,5,6,9,10,18,19,20,21,22,22a-tetradecahydro-8H-7,10-methanocyclopropa[18,19][1,10,3,6]dioxadiazacyclononadecino[11,12-b]quinoxaline-8-carboxamide], the Ki is greater than 100 nM.

With `CC[C@@H]1[C@@H]2CN(C(=O)[C@H](C(C)(C)C)NC(=O)O[C@@H]3CCC[C@H]3CCCCCc3nc4ccc(OC)cc4nc3O2)[C@@H]1C(=O)N[C@]1(C(=O)NS(=O)(=O)C2(C)CC2)C[C@H]1C(F)F` [Example 6, (3aR,7S,10S,11S,12R,24aR)-7-tert-butyl-N-[(1R,2R)-2-(difluoromethyl)-1-{[(1-methylcyclopropyl)sulfonyl]carbamoyl}cyclopropyl]-11-ethyl-16-methoxy-5,8-dioxo-1,2,3,3a,5,6,7,8,11,12,20,21,22,23,24,24a-hexadecahydro-10H-9,12-methanocyclopenta[18,19][1,10,3,6]dioxadiazacyclononadecino[11,12-b]quinoxaline-10-carboxamide], the Ki is 0.62 nM.

`CC[C@@H]1[C@@H]2CN(C(=O)[C@H](C(C)(C)C)NC(=O)O[C@@]3(C)C[C@@H]3CCCCCc3nc4ccc(OC)cc4nc3O2)[C@@H]1C(=O)N[C@]1(C(=O)NS(=O)(=O)C2(C)CC2)C[C@H]1C(F)F` [Example 8, (1aS,5S,8S,9S,10R,22aS)-5-tert-butyl-N-[(1R,2R)-2-(difluoromethyl)-1-{[(1-methylcyclopropyl)sulfonyl]carbamoyl}cyclopropyl]-9-ethyl-14-methoxy-1a-methyl-3,6-dioxo-1,1a,3,4,5,6,9,10,18,19,20,21,22,22a-tetradecahydro-8H-7,10-methanocyclopropa[18,19][1,10,3,6]dioxadiazacyclononadecino[11,12-b]quinoxaline-8-carboxamide]: the Ki is 0.42 nM.

Still in this experiment, the particulars now being: read-out: Ki 3A, 200 pM enzyme, 20 μM NS4A peptide, 2 μM substrate.
Turning to `COc1ccc2nc3c(nc2c1)O[C@H]1CN(C(=O)[C@H](C(C)(C)C)NC(=O)O[C@@H]2C[C@H]2CCCCC3)[C@H](C(=O)N[C@]2(C(=O)NS(=O)(=O)C3CC3)C[C@H]2CC(F)F)[C@@H]1C` [Example 24, (1aR,5S,8S,9S,10R,22aR)-5-tert-butyl-N-[(1R,2S)-1-[(cyclopropylsulfonyl)carbamoyl]-2-(2,2-difluoroethyl)cyclopropyl]-14-methoxy-9-methyl-3,6-dioxo-1,1a,3,4,5,6,9,10,18,19,20,21,22,22a-tetradecahydro-8H-7,10-methanocyclopropa[18,19][1,10,3,6]dioxadiazacyclononadecino[11,12-b]quinoxaline-8-carboxamide], the Ki is 0.92 nM.

For `COc1ccc2nc3c(nc2c1)O[C@H]1CN(C(=O)[C@H](C(C)(C)C)NC(=O)O[C@@H]2C[C@H]2CCCCC3)[C@H](C(=O)N[C@]2(C(=O)NS(=O)(=O)C3CC3)C[C@H]2C(F)F)[C@@H]1C` [Example 19, (1aR,5S,8S,9S,10R,22aR)-5-tert-butyl-N-[(1R,2R)-1-[(cyclopropylsulfonyl)carbamoyl]-2-(difluoromethyl)cyclopropyl]-14-methoxy-9-methyl-3,6-dioxo-1,1a,3,4,5,6,9,10,18,19,20,21,22,22a-tetradecahydro-8H-7,10-methanocyclopropa[18,19][1,10,3,6]dioxadiazacyclononadecino[11,12-b]quinoxaline-8-carboxamide], the Ki was 0.13 nM.

`COc1ccc2nc3c(nc2c1)O[C@H]1CN(C(=O)[C@H](C(C)(C)C)NC(=O)O[C@@H]2C[C@@H]4C[C@@H]4[C@H]2CCCCC3)[C@H](C(=O)N[C@]2(C(=O)NS(=O)(=O)C3(C)CC3)C[C@H]2CC(F)F)[C@@H]1C` [Example 58, (1aS,2aR,6S,9S,10S,11R,23aR,23bS)-6-tert-butyl-N-[(1R,2S)-2-(2,2-difluoroethyl)-1-{[(1-methylcyclopropyl)sulfonyl]carbamoyl}cyclopropyl]-15-methoxy-10-methyl-4,7-dioxo-1a,2,2a,4,5,6,7,10,11,19,20,21,22,23,23a,23b-hexadecahydro-1H,9H-8,11-methanocyclopropa[4′,5′]cyclopenta[1′,2′:18,19][1,10,3,6]dioxadiazacyclononade cino[11,12-b]quinoxaline-9-carboxamide]: the inhibitory constant (Ki) is 0.17 nM.
